In a compilation of properties of binary mixtures (doi:10.1016/j.molliq.2008.06.014):

Experiment: xn = mol fraction of the nth substance listed
Conditions: 101 kPa

CN(C)CCO + CCCC[n+]1ccn(C)c1.F[P-](F)(F)(F)(F)F
Conditions	electrical conductivity [S/m]	viscosity [mPa·s]
288.15 K, x1 = 0.1221	0.12	213
288.15 K, x1 = 0.2143	0.14	159
288.15 K, x1 = 0.4405	–	81
288.15 K, x1 = 0.4637	0.179	–
288.15 K, x1 = 0.605	0.206	46
288.15 K, x1 = 0.9128	0.135	9.5
288.15 K, x1 = 1	0.082	5
293.15 K, x1 = 0.1221	0.161	157
293.15 K, x1 = 0.3182	0.203	88
293.15 K, x1 = 0.3764	0.226	–
293.15 K, x1 = 0.605	0.264	35
293.15 K, x1 = 0.709	0.266	23
293.15 K, x1 = 0.9128	0.16	8
293.15 K, x1 = 1	0.091	4.3
298.15 K, x1 = 0.2143	0.242	88
298.15 K, x1 = 0.3182	0.263	66
298.15 K, x1 = 0.3764	0.285	–
298.15 K, x1 = 0.4405	–	46
298.15 K, x1 = 0.5166	0.322	36
298.15 K, x1 = 0.605	0.333	27
298.15 K, x1 = 0.709	0.332	18.2
298.15 K, x1 = 0.8063	0.297	11.8
303.15 K, x1 = 0.1221	0.272	88
303.15 K, x1 = 0.2143	0.311	68
303.15 K, x1 = 0.3182	0.341	51
303.15 K, x1 = 0.4637	0.389	–
303.15 K, x1 = 0.5166	0.403	28
303.15 K, x1 = 0.605	0.414	21.4
303.15 K, x1 = 0.709	0.404	14.7
303.15 K, x1 = 0.9128	0.218	5.6
303.15 K, x1 = 1	0.11	3.2
308.15 K, x1 = 0.1221	0.348	67
308.15 K, x1 = 0.2143	0.396	52
308.15 K, x1 = 0.3182	0.431	39
308.15 K, x1 = 0.3764	0.461	–
308.15 K, x1 = 0.5166	0.502	22.4
308.15 K, x1 = 0.605	0.51	17
308.15 K, x1 = 0.709	0.49	11.9
308.15 K, x1 = 0.8063	0.423	8
308.15 K, x1 = 0.9128	0.252	4.8
308.15 K, x1 = 1	0.12	2.9
313.15 K, x1 = 0.1221	0.434	53
313.15 K, x1 = 0.2143	0.491	41
313.15 K, x1 = 0.3182	0.531	31
313.15 K, x1 = 0.3764	0.564	–
313.15 K, x1 = 0.4405	–	22.6
313.15 K, x1 = 0.4637	0.589	–
313.15 K, x1 = 0.5166	0.606	18.1
313.15 K, x1 = 0.709	0.583	9.8
313.15 K, x1 = 0.8063	0.494	6.7
313.15 K, x1 = 0.9128	0.288	4.1
313.15 K, x1 = 1	0.131	2.5
318.15 K, x1 = 0.1221	0.531	42
318.15 K, x1 = 0.2143	0.599	33
318.15 K, x1 = 0.3182	0.648	25
318.15 K, x1 = 0.4405	–	18.6
318.15 K, x1 = 0.4637	0.713	–
318.15 K, x1 = 0.5166	0.727	14.9
318.15 K, x1 = 0.605	0.726	11.6
318.15 K, x1 = 0.709	0.682	8.3
318.15 K, x1 = 0.8063	0.571	5.7
318.15 K, x1 = 0.9128	0.326	3.6
318.15 K, x1 = 1	0.141	2.27
323.15 K, x1 = 0.1221	0.63	35
323.15 K, x1 = 0.2143	0.712	28
323.15 K, x1 = 0.3182	0.767	21.2
323.15 K, x1 = 0.4405	–	15.7
323.15 K, x1 = 0.4637	0.834	–
323.15 K, x1 = 0.605	0.841	9.9
323.15 K, x1 = 0.709	0.784	7.1
323.15 K, x1 = 0.8063	0.648	5
323.15 K, x1 = 0.9128	0.363	3.2

NCCO + CCCC[n+]1ccn(C)c1.F[P-](F)(F)(F)(F)F
x1 = 1
Conditions	electrical conductivity [S/m]	viscosity [mPa·s]
298.15 K	0.0023	18.6
303.15 K	0.0027	15
308.15 K	0.0032	11.9
313.15 K	0.0036	9.9
323.15 K	0.0069	7

CCCC[n+]1ccn(C)c1.F[P-](F)(F)(F)(F)F + CN(C)CCO
x2 = 0
Conditions	electrical conductivity [S/m]	viscosity [mPa·s]
288.15 K	0.105	350
293.15 K	0.142	250
298.15 K	0.185	182
303.15 K	0.24	136
308.15 K	0.309	102
313.15 K	0.384	79
318.15 K	0.421	62
323.15 K	0.504	48

CCCC[n+]1ccn(C)c1.F[P-](F)(F)(F)(F)F + NCCO
Conditions	electrical conductivity [S/m]	viscosity [mPa·s]
288.15 K, x2 = 0	0.105	350
288.15 K, x2 = 0.1185	0.124	220
288.15 K, x2 = 0.2113	0.144	172
288.15 K, x2 = 0.3052	0.165	141
288.15 K, x2 = 0.387	0.177	–
288.15 K, x2 = 0.4282	0.178	107
288.15 K, x2 = 0.4761	0.186	–
288.15 K, x2 = 0.4918	0.186	93
288.15 K, x2 = 0.5352	0.194	–
288.15 K, x2 = 0.5871	0.2	–
288.15 K, x2 = 0.6161	0.197	70
288.15 K, x2 = 0.6533	0.198	–
288.15 K, x2 = 0.6984	0.194	58
288.15 K, x2 = 0.9592	0.0794	–
293.15 K, x2 = 0	0.142	250
293.15 K, x2 = 0.1185	0.167	159
293.15 K, x2 = 0.2113	0.194	125
293.15 K, x2 = 0.4282	0.239	78
293.15 K, x2 = 0.4761	0.251	–
293.15 K, x2 = 0.4918	0.25	68
293.15 K, x2 = 0.6161	0.262	52
293.15 K, x2 = 0.6533	0.264	–
293.15 K, x2 = 0.6984	0.259	44
293.15 K, x2 = 0.8022	0.243	34
293.15 K, x2 = 0.9028	0.178	27
298.15 K, x2 = 0.1185	0.221	117
298.15 K, x2 = 0.387	0.309	–
298.15 K, x2 = 0.4282	0.312	59
298.15 K, x2 = 0.4761	0.329	–
298.15 K, x2 = 0.4918	0.325	52
298.15 K, x2 = 0.5871	0.347	–
298.15 K, x2 = 0.6161	0.34	39
298.15 K, x2 = 0.6533	0.346	–
298.15 K, x2 = 0.6984	0.34	33
298.15 K, x2 = 0.9028	0.226	21.3
298.15 K, x2 = 0.9592	0.131	–
303.15 K, x2 = 0	0.24	136
303.15 K, x2 = 0.1185	0.286	87
303.15 K, x2 = 0.2113	0.33	70
303.15 K, x2 = 0.3052	0.378	58
303.15 K, x2 = 0.387	0.397	–
303.15 K, x2 = 0.4282	0.4	45
303.15 K, x2 = 0.4761	0.424	–
303.15 K, x2 = 0.4918	0.415	39
303.15 K, x2 = 0.5871	0.445	–
303.15 K, x2 = 0.6161	0.432	30
303.15 K, x2 = 0.6533	0.441	–
303.15 K, x2 = 0.8022	0.397	20.8
303.15 K, x2 = 0.9028	0.283	16.9
303.15 K, x2 = 0.9592	0.164	–
308.15 K, x2 = 0	0.309	102
308.15 K, x2 = 0.1185	0.366	67
308.15 K, x2 = 0.2113	0.422	55
308.15 K, x2 = 0.3052	0.486	44
308.15 K, x2 = 0.4918	0.529	30
308.15 K, x2 = 0.5352	0.551	–
308.15 K, x2 = 0.5871	0.565	–
308.15 K, x2 = 0.6161	0.55	23.6
308.15 K, x2 = 0.6533	0.561	–
308.15 K, x2 = 0.6984	0.552	20.2
308.15 K, x2 = 0.8022	0.495	16.3
308.15 K, x2 = 0.9028	0.351	13.5
308.15 K, x2 = 0.9592	0.204	–
313.15 K, x2 = 0	0.384	79
313.15 K, x2 = 0.1185	0.455	53
313.15 K, x2 = 0.2113	0.524	42
313.15 K, x2 = 0.387	0.627	–
313.15 K, x2 = 0.4282	0.635	27
313.15 K, x2 = 0.4918	0.665	24.4
313.15 K, x2 = 0.5871	0.698	–
313.15 K, x2 = 0.6161	0.676	18.8
313.15 K, x2 = 0.6533	0.693	–
313.15 K, x2 = 0.6984	0.675	16.3
313.15 K, x2 = 0.8022	0.607	13.1
313.15 K, x2 = 0.9028	0.426	11
318.15 K, x2 = 0	0.421	62
318.15 K, x2 = 0.1185	0.558	42
318.15 K, x2 = 0.2113	0.641	34
318.15 K, x2 = 0.387	0.766	–
318.15 K, x2 = 0.4761	0.813	–
318.15 K, x2 = 0.5352	0.825	–
318.15 K, x2 = 0.5871	0.846	–
318.15 K, x2 = 0.6161	0.82	15.3
318.15 K, x2 = 0.6533	0.843	–
318.15 K, x2 = 0.6984	0.821	12.8
318.15 K, x2 = 0.8022	0.731	10.8
318.15 K, x2 = 0.9028	0.526	9.1
318.15 K, x2 = 0.9592	0.3	–
323.15 K, x2 = 0.1185	0.665	35
323.15 K, x2 = 0.2113	0.76	28
323.15 K, x2 = 0.387	0.915	–
323.15 K, x2 = 0.4282	0.918	18.3
323.15 K, x2 = 0.4918	0.945	16.1
323.15 K, x2 = 0.5871	1	–
323.15 K, x2 = 0.6161	0.971	12.8
323.15 K, x2 = 0.6533	0.999	–
323.15 K, x2 = 0.6984	0.972	11.1
323.15 K, x2 = 0.8022	0.861	9.1
323.15 K, x2 = 0.9028	0.619	7.7
323.15 K, x2 = 0.9592	0.351	–
